According to ChEMBL document CHEMBL1139821, “Synthesis and antitubercular activity of lipophilic moxifloxacin and gatifloxacin derivatives” (2007):
≈ marks a conversion by molar mass, not a printed value.

Test system: Mycobacterium tuberculosis
Experiment: Antitubercular activity against Mycobacterium tuberculosis H37Rv
Format: functional

Question: Which MIC does the source give for CCCCCCCCNCCCNc1c(F)cc2c(=O)c(C(=O)O)cn(C3CC3)c2c1OC here?
Answer: The MIC was 1.25 µg/mL (≈ 2.71 µM).

Question: How did the MIC turn out when CCCCCCCCCCNCCCNc1c(F)cc2c(=O)c(C(=O)O)cn(C3CC3)c2c1OC was run?
Answer: The MIC was 0.31 µg/mL (≈ 0.633 µM).

Question: With CCCCCCCCCCCCCCNCCNc1c(F)cc2c(=O)c(C(=O)O)cn(C3CC3)c2c1OC as the compound, how does the MIC read?
Answer: Its MIC is 6.25 µg/mL (≈ 11.8 µM).

Question: How did the MIC turn out when CO[C@H]1/C=C/O[C@@]2(C)Oc3c(C)c(O)c4c(O)c(c(/C=N/N5CCN(C)CC5)c(O)c4c3C2=O)NC(=O)/C(C)=C\C=C\[C@H](C)[C@H](O)[C@@H](C)[C@@H](O)[C@@H](C)[C@H](OC(C)=O)[C@@H]1C [RIFAMPIN] was run?
Answer: Its MIC is 1 µg/mL (≈ 1.22 µM).

Question: With CCCCCCCCCCCCNCCCNc1c(F)cc2c(=O)c(C(=O)O)cn(C3CC3)c2c1OC as the compound, how does the MIC read?
Answer: Its MIC is 0.62 µg/mL (≈ 1.2 µM).

Question: With CCCCCCNCCCNc1c(F)cc2c(=O)c(C(=O)O)cn(C3CC3)c2c1OC as the compound, how does the MIC read?
Answer: Its MIC is 50 µg/mL (≈ 115 µM).

Question: Which MIC does the source give for CCCCC(CC)CNCCNc1c(F)cc2c(=O)c(C(=O)O)cn(C3CC3)c2c1OC (centres undefined) here?
Answer: The MIC was 0.62 µg/mL (≈ 1.39 µM).

Question: How did the MIC turn out when CCCCC(CC)CNCCCNc1c(F)cc2c(=O)c(C(=O)O)cn(C3CC3)c2c1OC (centres undefined) was run?
Answer: Its MIC is 2.5 µg/mL (≈ 5.42 µM).

Question: How did the MIC turn out when CCCCCCCCCCCCCCNCCCNc1c(F)cc2c(=O)c(C(=O)O)cn(C3CC3)c2c1OC was run?
Answer: Its MIC is 0.62 µg/mL (≈ 1.14 µM).

Question: How did the MIC turn out when CCCCCCCCCCNCCNc1c(F)cc2c(=O)c(C(=O)O)cn(C3CC3)c2c1OC was run?
Answer: The MIC was 0.62 µg/mL (≈ 1.3 µM).

Question: CCCCCCCCNCCNc1c(F)cc2c(=O)c(C(=O)O)cn(C3CC3)c2c1OC was tested. Which MIC did it give?
Answer: Its MIC is 12.5 µg/mL (≈ 27.9 µM).

Question: Which MIC does the source give for CCCCCCCCCCCCNCCNc1c(F)cc2c(=O)c(C(=O)O)cn(C3CC3)c2c1OC here?
Answer: The MIC was 1.25 µg/mL (≈ 2.48 µM).

Question: COc1c(N2CCNC(C)C2)c(F)cc2c(=O)c(C(=O)O)cn(C3CC3)c12 (centres undefined) [GATIFLOXACIN] was tested. Which MIC did it give?
Answer: The MIC was 0.1 µg/mL (≈ 0.266 µM).

Question: With CCCCCCNCCNc1c(F)cc2c(=O)c(C(=O)O)cn(C3CC3)c2c1OC as the compound, how does the MIC read?
Answer: Its MIC is 5 µg/mL (≈ 11.9 µM).
